From patent publication US8598154B2 (Corcept Therapeutics, Inc., priority 2010, dated 2013)

Legend:
[1] = biological target: T1, glucocorticoid receptors (GR) in SW1353/MMTV-5 cells (Homo sapiens, UniProt P04150); experiment: GR functional assay using SW1353/MMTV-5 cells (MMTV-luciferase reporter); assay type: cell-based
T1 construct: contains endogenous glucocorticoid receptors; endogenous in cells; host or cells: SW1353/MMTV-5 (human chondrosarcoma, stably transfected with the pMAMneo-Luc reporter only)
T1 sequence (P04150 1-777): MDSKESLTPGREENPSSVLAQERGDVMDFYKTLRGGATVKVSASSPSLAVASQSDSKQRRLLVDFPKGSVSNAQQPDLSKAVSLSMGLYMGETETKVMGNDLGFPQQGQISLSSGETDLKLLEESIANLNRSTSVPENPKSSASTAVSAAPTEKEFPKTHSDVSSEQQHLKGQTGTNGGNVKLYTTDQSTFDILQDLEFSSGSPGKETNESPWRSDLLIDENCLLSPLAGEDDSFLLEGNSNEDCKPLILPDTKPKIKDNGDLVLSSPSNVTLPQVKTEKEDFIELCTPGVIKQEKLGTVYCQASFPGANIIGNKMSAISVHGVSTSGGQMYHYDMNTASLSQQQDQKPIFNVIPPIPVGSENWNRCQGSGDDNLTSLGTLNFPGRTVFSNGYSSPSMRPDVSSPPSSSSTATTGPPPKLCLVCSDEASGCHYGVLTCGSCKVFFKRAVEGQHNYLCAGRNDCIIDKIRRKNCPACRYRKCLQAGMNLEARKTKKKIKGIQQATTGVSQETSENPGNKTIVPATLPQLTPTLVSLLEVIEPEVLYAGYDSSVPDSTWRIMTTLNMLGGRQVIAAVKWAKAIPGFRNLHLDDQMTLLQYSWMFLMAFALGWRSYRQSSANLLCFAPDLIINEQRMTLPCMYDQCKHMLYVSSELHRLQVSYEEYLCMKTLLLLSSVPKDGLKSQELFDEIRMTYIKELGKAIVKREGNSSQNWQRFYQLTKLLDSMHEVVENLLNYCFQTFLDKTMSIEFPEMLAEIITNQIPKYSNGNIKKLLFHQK
How it was run: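 Human chondrosarcoma line stably carrying firefly luciferase under an MMTV LTR glucocorticoid-responsive element, with endogenous GR. Cells were plated in 96-well plates and held 24 hrs in geneticin-free medium without CO2.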

[2] = biological target: T2, Human Recombinant Glucocorticoid Receptor (Homo sapiens, UniProt P04150); experiment: Glucocorticoid receptor binding displacement assay with 3H-dexamethasone; conditions: displacement of 2.5 nM 3H-dexamethasone; Ki from IC50 by Cheng-Prusoff; read-out: GR Binding Ki
T2 construct: This GR was a full-length steroid hormone receptor likely to be associated with heat-shock and other endogenous proteins; host or cells: baculovirus-infected insect cells
T2 sequence (P04150 1-777): T1 sequence (P04150 1-777)

Compound | Ki [1] [nM] | Ki [2] [nM]
CC(C)OC(=O)[C@]12Cc3cnn(-c4ccc(F)cc4)c3C=C1CCN(S(=O)(=O)c1ccc(N3CCOCC3)nc1)C2 [Example 49, (R)-1-(4-Fluorophenyl)-6-(6-morpholin-4-yl-pyridine-3-sulfonyl]-1,4,5,6,7,8-hexahydro-1,2,6-triaza-cyclopenta[b]naphthalene-4a-carboxylic acid isopropyl ester] | 10 to 50 | < 0.5
CNc1ccc(S(=O)(=O)N2CCC3=Cc4c(cnn4-c4ccc(F)cc4)C[C@]3(COC)C2)cn1 [Example 9, (R)-1-(4-Fluorophenyl)-4a-methoxymethyl-6-[[6-methylamino-3-pyridinyl]sulfonyl]-1,4,7,8-tetrahydro-1,2,6-triazacyclopenta[b]naphthalene] | > 50 | > 1
O=C(OCC1CCC1)[C@]12Cc3cnn(-c4ccc(F)cc4)c3C=C1CCN(S(=O)(=O)c1ccc(N3CCOCC3)nc1)C2 [Example 52, (R)-1-(4-Fluorophenyl)-6-(6-morpholin-4-yl-pyridine-3-sulfonyl]-1,4,5,6,7,8-hexahydro-1,2,6-triaza-cyclopenta[b]naphthalene-4a-carboxylic acid cyclobutylmethyl ester] | < 10 | 0.5 to 1
COC[C@]12Cc3cnn(-c4ccc(F)cc4)c3C=C1CCN(S(=O)(=O)c1cncc(N3CC[C@H](O)C3)c1)C2 [Example 39, (S)-1-{5-[(R)-1-(4-Fluorophenyl)-4a-methoxymethyl-1,4,4a,5,6,7,8-hexahydro-1,2,6-triaza-cyclopenta[b]naphthalene-6-sulfonyl]pyridine-3-yl}-pyrrolidine-3-ol] | > 50 | 0.5 to 1
CCOC(=O)[C@]12Cc3cnn(-c4ccc(F)cc4)c3C=C1CCN(S(=O)(=O)c1ccc(N3CCOCC3)nc1)C2 [Example 48, (R)-1-(4-Fluorophenyl)-6-(6-morpholin-4-yl-pyridine-3-sulfonyl]-1,4,5,6,7,8-hexahydro-1,2,6-triaza-cyclopenta[b]naphthalene-4a-carboxylic acid ethyl ester] | 10 to 50 | 0.5 to 1
COc1ccc(S(=O)(=O)N2CCC3=Cc4c(cnn4-c4ccc(F)cc4)C[C@]3(C(=O)OCC3CCC3)C2)cn1 [Example 59, (R)-1-(4-Fluorophenyl)-6-(6-methoxypyridine-3-sulfonyl)-1,4,5,6,7,8-hexahydro-1,2,6-triaza-cyclopenta[b]naphthalene-4a-carboxylic acid cyclobutylmethyl ester] | < 10 | 0.5 to 1
O=C(OC1CCC1)[C@]12Cc3cnn(-c4ccc(F)cc4)c3C=C1CCN(S(=O)(=O)c1ccc(N3CCOCC3)nc1)C2 [Example 50, (R)-1-(4-Fluorophenyl)-6-(6-morpholin-4-yl-pyridine-3-sulfonyl]-1,4,5,6,7,8-hexahydro-1,2,6-triaza-cyclopenta[b]naphthalene-4a-carboxylic acid cyclobutyl ester] | < 10 | 0.5 to 1
COC[C@]12Cc3cnn(-c4ccc(F)cc4)c3C=C1CCN(S(=O)(=O)c1ccnc(N3CC[C@H](O)C3)c1)C2 [Example 44, (S)-1-{4-[(R)-1-(4-Fluorophenyl)-4a-methoxymethyl-1,4,4a,5,6,7,8-hexahydro-1,2,6-triaza-cyclopenta[b]naphthalene-6-sulfonyl]-pyridin-2-yl}-pyrrolidin-3-ol] | > 50 | > 1
COC(=O)[C@]12Cc3cnn(-c4ccc(F)cc4)c3C=C1CCN(S(=O)(=O)c1ccc(N3CCOCC3)nc1)C2 [Example 1c, (R)-1-(4-Fluorophenyl)-6-(6-morpholin-4-ylpyridine-3-sulfonyl)-1,4,5,6,7,8-hexahydro-1,2,6-triazacyclopenta[b]naphthalene-4a-carboxylic acid methyl ester] | > 50 | > 1
COC[C@]12Cc3cnn(-c4ccc(F)cc4)c3C=C1CCN(S(=O)(=O)c1ccc(N3CC[C@@H](O)C3)nc1)C2 [Example 21, (R)-1-{5-[(R)-1-(4-Fluorophenyl)-4a-methoxymethyl-1,4,4a,5,6,7,8-hexahydro-1,2,6-triaza-cyclopenta[b]naphthalene-6-sulfonyl]-pyridin-2-yl}-pyrrolidin-3-ol] | > 50 | > 1
Cc1cc(COC(=O)[C@]23Cc4cnn(-c5ccc(F)cc5)c4C=C2CCN(S(=O)(=O)c2ccc(N4CCOCC4)nc2)C3)no1 [Example 57, (R)-1-(4-Fluorophenyl)-6-(6-morpholin-4-yl-pyridine-3-sulfonyl]-1,4,5,6,7,8-hexahydro-1,2,6-triaza-cyclopenta[b]naphthalene-4a-carboxylic acid 5-methylisoxazol-3-ylmethyl ester] | 10 to 50 | 0.5 to 1
COC[C@]12Cc3cnn(-c4ccc(F)cc4)c3C=C1CCN(S(=O)(=O)c1ccc(N3C[C@@H]4C[C@H]3CO4)nc1)C2 [Example 23, (R)-1-(4-Fluorophenyl)-4a-methoxymethyl-6-[(1S,4S)-6-(2-oxa-5-aza-bicyclo[2.2.1]hept-5-yl)pyridine-3-sulfonyl]-4,4a,5,6,7,8-hexahydro-1H-1,2,6-triaza-cyclopenta[b]naphthalene] | > 50 | > 1
O=C(OCC1CC1)[C@]12Cc3cnn(-c4ccc(F)cc4)c3C=C1CCN(S(=O)(=O)c1ccc(C(F)(F)F)nc1)C2 [Example 58] | < 10 | 0.5 to 1
